Assay results taken from publication PMC3428523, “Phase I study of the Aurora B kinase inhibitor barasertib (AZD1152) to assess the pharmacokinetics, metabolism and excretion in patients with acute myeloid leukemia” (Cancer Chemotherapy and Pharmacology, 2012).
Read-outs that look alike come from different tables or passages of the source. Marks after values point to notes of the source that are not given here.

Experiments:
patients with AML [1] = assay: Safety: adverse events graded by CTCAE version 3.0; assay type: in vivo, human
Description: (§1) Efficacy was assessed according to the International Working Group for AML trials criteria. Adverse events (AEs) were graded according to the National Cancer Institute Common Terminology Criteria for Adverse Events (CTCAE), version 3.0 [19].

[2] = Plasma pharmacokinetics of barasertib and barasertib-hQPA (LC-MS/MS), 7-day continuous infusion in patients with AML; assay type: in vivo, human; settings: for Time by which maximal plasma concentration was achieved: from start of infusion, first scheduled sample
Description: (§2) This was an open-label, single-arm, single-center, Phase I study. Patients received barasertib 1,200 mg as a 7-day continuous intravenous infusion every 28 days. On Day 2 of Cycle 1 only, patients also received [^14C]-barasertib (250 μCi), administered as a 2-hour infusion. Based on preclinical studies in rat and dog, it was expected that an adequate recovery of total radioactivity, and thus comprehensive metabolite profiling, would be achieved following the administration of the specified [^14C]-barasertib regimen (data on file). On the completion of the [^14C]-barasertib infusion, administration of non-radiolabeled barasertib resumed for the remainder of the 7-day infusion period. Following Cycle 1, each patient could receive subsequent treatment cycles until disease progression or any other discontinuation criteria were met. For Cycle 1, patients remained as in-patients for up to 9 days following the start of the 7-day barasertib infusion (7 days of dosing plus 2 additional days for observation). For all subsequent cycles, patients were hospitalized for the infusion period only.
(§3) Samples of blood, urine and feces were collected prior to study treatment and at various time points during Cycle 1. Blood samples were collected approximately 30 min prior to start of infusion (SOI) on Day 1 (barasertib) and Day 2 ([^14C]-barasertib), and then every 24 h until Day 10 (216 h) and on Days 14 and 18 (312 and 408 h, respectively). In addition, samples were collected on Day 2: 1 h following the start of the [^14C]-barasertib infusion ([^14C]-SOI), 5 min prior to the end of [^14C]-barasertib infusion ([^14C]-EOI), and at 15 min, 1, 2, 4 and 8 h following [^14C]-EOI; and on Day 8: 5 min prior to the end of the barasertib infusion (EOI), and at 15 min, 1, 2, 4, 6 and 10 h following EOI. A urine sample was collected within the 24-hour period prior to barasertib-SOI; feces samples within this 24-hour period were also collected. A urine sample was collected within the 24-hour period following barasertib-SOI. Further, urine and feces samples were collected within 24-hour periods following [^14C]-SOI: 0–24, 24–48, 48–72, 72–96, 96–120, 120–144, 144–168 and 168–192 h.
(§4) Barasertib and barasertib-hQPA concentrations in plasma and urine were measured using liquid chromatography tandem mass spectrometry following solid-phase extraction (plasma) or dilution (urine). Plasma measurements were determined by an independent bioanalytical facility (PRA International—Early Development Services, Assen, The Netherlands). The lower limit of quantification (LLOQ) was 0.25 ng/mL for plasma samples and 1.00 μg/mL for urine samples. Radioactivity in weighed aliquots of plasma, urine, feces, whole blood and dose material was determined by liquid scintillation counting (LSC). Radioactivity concentrations in plasma and whole blood, and percentage dose excreted in urine and feces samples were calculated using LabLogic Debra 5TM (version 5.4.10.51). For metabolite profiling, plasma samples that were collected 5 min prior to [^14C]-EOI for each patient were prepared using 5 % formic acid in acetonitrile; extraction efficiencies were all >91 %. Extracts were concentrated to dryness and reconstituted in water/acetonitrile (95:5 v/v). Pooled urine samples were freeze-dried and then reconstituted in methanol (duplicate extracts); extraction efficiencies were all >94 %. The two extracts were combined, concentrated to dryness and reconstituted in water/acetonitrile (95:5 v/v). Pooled feces samples were extracted with hexane followed by 3 × 5 % formic acid in acetonitrile; extraction efficiencies ranged from 86 to 98 %. The first two 5 % formic acid/acetonitrile extracts were combined, concentrated to a small volume and reconstituted in water/acetonitrile (95:5 v/v). Metabolite profiling was determined using high-performance liquid chromatography–radiometric (HPLC-RAD) methodology, with metabolites identified by HPLC coupled with mass spectrometry (HPLC-MSn).

AML patients = settings: Phase I/II dose-escalation study; cited from earlier work
patients with AML [3] = assay: Efficacy: response by International Working Group AML criteria; assay type: in vivo, human
Description: The primary objective was to assess the PK, metabolism and excretion profiles of barasertib and barasertib-hQPA following a single 7-day intravenous infusion, including a short infusion of [^14C]-barasertib, to patients with AML. Secondary objectives were to assess the safety and tolerability of barasertib and to evaluate preliminary efficacy by measurement of individual patient response (based on the International Working Group AML clinical response criteria).
as §1

[4] = Urine pharmacokinetics of barasertib and barasertib-hQPA (LC-MS/MS) in patients with AML; assay type: in vivo, human
Description: as §2, §3
as §4, with “Pooled urine samples were freeze-dried and then reconstituted in methanol (duplicate extracts); extraction efficiencies were all >94 %. The two extracts were combined, concentrated to dryness and reconstituted in water/acetonitrile (95:5 v/v). Pooled feces samples were extracted with hexane followed by 3 × 5 % formic acid in acetonitrile; extraction efficiencies ranged from 86 to 98 %. The first two 5 % formic acid/acetonitrile extracts were combined, concentrated to a small volume and reconstituted in water/acetonitrile (95:5 v/v).” left out

[5] = Metabolite profiling of plasma, urine and feces by HPLC-RAD / HPLC-MSn; assay type: in vivo, human
Description: Samples of blood, urine and feces were collected prior to study treatment and at various time points during Cycle 1. […] A urine sample was collected within the 24-hour period prior to barasertib-SOI; feces samples within this 24-hour period were also collected. A urine sample was collected within the 24-hour period following barasertib-SOI.
as §4, with “The lower limit of quantification (LLOQ) was 0.25 ng/mL for plasma samples and 1.00 μg/mL for urine samples.” left out, “For metabolite profiling, plasma samples that were collected 5 min prior to [^14C]-EOI for each patient were prepared using 5 % formic acid in acetonitrile; extraction efficiencies were all >91 %.” left out, “Pooled urine samples were freeze-dried and then reconstituted in methanol (duplicate extracts); extraction efficiencies were all >94 %.” left out, “Pooled feces samples were extracted with hexane followed by 3 × 5 % formic acid in acetonitrile; extraction efficiencies ranged from 86 to 98 %.” left out

patients with AML [6] = test system: patients with AML; design: method as in PMID 21976672, PMID 21565405; settings: Phase I studies, Japanese and Western patients with AML; cited from earlier work
[7] = Grade 3, barasertib 1,200 mg, n = 5
[8] = all grades, any cause, barasertib 1,200 mg, n = 5
[9] = all grades, barasertib 1,200 mg, n = 5
[10] = human, plasma, iv, 1200 mg, plasma, n=4, barasertib 1,200 mg 7-day continuous i.v. infusion, geometric mean (coefficient of variation), read-out: AUC(0–t)
[11] = plasma, n=4, barasertib 1,200 mg 7-day continuous i.v. infusion, geometric mean (coefficient of variation)
[12] = plasma collected 5 min prior to [14C]-EOI, % of chromatogram radioactivity
[13] = excreta (urine and feces), % of administered dose
[14] = urine, n=5, arithmetic mean (standard deviation)

## CCN(CCCOc1ccc2c(Nc3cc(CC(=O)Nc4cccc(F)c4)n[nH]3)ncnc2c1)CCOP(=O)(O)O [Barasertib]
Patients with AML [1]; [7]
  Febrile neutropenia, number of patients: 2
  Hypocalcemia, number of patients: 1
  Hypomagnesemia, number of patients: 1
  Stomatitis, number of patients: 2
Patients with AML [1]; Grade 4, barasertib 1,200 mg, n = 5
  Febrile neutropenia, number of patients: 1
Patients with AML [1]; [8]
  Nausea, number of patients: 4
  Stomatitis, number of patients: 4
Patients with AML [1]; [9]
  Alopecia, number of patients: 3
  Constipation, number of patients: 2
  Decreased appetite, number of patients: 2
  Diarrhea, number of patients: 2
  Fatigue, number of patients: 2
  Febrile neutropenia, number of patients: 3
  Headache, number of patients: 2
  Hypocalcemia, number of patients: 3
  Hypomagnesemia, number of patients: 2
  Oral candidiasis, number of patients: 2
  Peripheral edema, number of patients: 2
  Vomiting, number of patients: 3
Patients with AML [1]; at data cutoff, grade 5 multi-organ failure, considered unrelated to study treatment
  Patients who had died due to an AE: one
Patients with AML [1]; barasertib 1,200 mg, n = 5
  Changes in vital signs or ECG measurements: no clinically relevant changes
  Patients who experienced grade ≥3 AEs: three
[2]; LLOQ 0.25 ng/mL plasma
  Time after end of infusion at which plasma concentration reached the LLOQ: ≤ 6 h
[2]
  Time by which maximal plasma concentration was achieved: ≤ 24 h
[2]; [10]
  AUC(0-t): 13800 ng·h/mL
[2]; [11]
  CSS, steady-state drug concentration: 85.6 (0.5) ng/mL
AML patients
  Maximum tolerated dose (MTD): 1,200 mg
Patients with AML [3]; four patients evaluable for response
  Patients with no response: three
Patients with AML [3]; four patients evaluable for response, barasertib 1,200 mg 7-day infusion every 28 days
  Patients achieving complete response / complete remission: One
Patients with AML [3]; one patient
  Duration of complete response: ~ 6 months
[4]; all time points, LLOQ 1.00 μg/mL urine
  Urine concentration: below LLOQ
[5]; [12]
  Retrieved radioactivity (%), range: 17.26–26.53%
Patients with AML [6]
  Response rates: 19–25%

## Barasertib-hQPA N-oxide
[5]; [13]
  Retrieved radioactivity (%), range: 0.21–2.96%

## CCN(CCO)CCCOc1ccc2c(Nc3cc(CC(=O)Nc4cccc(F)c4)[nH]n3)ncnc2c1 [Barasertib-hQPA, barasertib-hydroxyquinazoline-pyrazol-aniline]
[2]; during the infusion period
  Geometric mean plasma concentration of barasertib-hQPA relative to barasertib: approximately threefold
[2]
  Time by which maximal plasma concentration was achieved: ≤ 24 h
[2]; human, in vivo
  Difference between volumes of distribution (apparent) at steady state versus terminal phase: fourfold
[2]; human, intravenous, 1200 mg, plasma, n=4, arithmetic mean (standard deviation), read-out: CL, total clearance (converted)
  clearance: 523 mL/min
[2]; human, intravenous, 1200 mg, plasma, n=4, arithmetic mean (standard deviation), read-out: t½, terminal half-life (converted)
  half-life: 66.3 h
[2]; human, intravenous, 1200 mg, plasma, n=4, arithmetic mean (standard deviation), read-out: λZ, slowest disposition rate constant (converted)
  k el: 5.56e-06 s⁻¹
[2]; human, iv, 1200 mg, plasma, n=4, barasertib 1,200 mg 7-day continuous i.v. infusion, geometric mean (coefficient of variation)
  AUC: 40400 ng·h/mL
[2]; human, plasma, intravenous, 1200 mg, plasma, n=4, arithmetic mean (standard deviation), read-out: VSS, volume of distribution (apparent) at steady state
  Vd: 669 L
[2]; human, plasma, intravenous, 1200 mg, plasma, n=4, arithmetic mean (standard deviation), read-out: VZ, volume of distribution (apparent) during terminal (λZ) phase
  Vd: 2800 L
[2]; human, plasma, intravenous, 1200 mg, 408 h (Day 18), read-out: Plasma concentration at final sampling point
  concentration at 408 h: ~4 ng/mL
[2]; human, plasma, iv, 1200 mg, plasma, n=4, barasertib 1,200 mg 7-day continuous i.v. infusion, geometric mean (coefficient of variation), read-out: AUC(0–192 h)
  AUC(0-t): 38200 ng·h/mL
[2]; [10]
  AUC(0-t): 40100 ng·h/mL
[2]; [11]
  CSS, steady-state drug concentration: 226.8 (0.4) ng/mL
[2]; within 2 h post-EOI, rapid initial phase
  Plasma concentration as fraction of the plasma steady-state concentration: one-third
[4]; during the infusion period
  Geometric mean urine concentration: 4 to 5 µg/mL
[4]; human, urine and plasma, intravenous, 1200 mg, urine, n=5, arithmetic mean (standard deviation), read-out: CLR, renal clearance of drug from plasma (converted)
  CL renal: 47.5 mL/min
[4]; [14]
  Ae, cumulative amount of unchanged drug excreted: 96.9 (47.2) mg
  fe, fraction of drug excreted into urine: 8.1 (3.9) %
[5]; [13]
  Retrieved radioactivity (%), range: 13.15–33.70%
[5]; excreta (urine and feces), % of administered dose, listed as barasertib-hQPA
  Retrieved radioactivity (%), range: 13.2–33.7%
[5]; [12]
  Retrieved radioactivity (%), range: 48.27–56.61%

## CCN(CCO)CCCOc1ccc2c(Nc3cc(CC(=O)O)[nH]n3)ncnc2c1 [Barasertib-hQPA desfluoroaniline]
[5]; [13]
  Retrieved radioactivity (%), range: 1.60–5.48%
[5]; [12]
  Retrieved radioactivity (%), range: 2.05^e %
